The values that follow come from patent US5290553A, “Alkaloids of picralima nitida used for treatment of protozoal diseases” (The United States of America as represented by the …, priority 1991, dated 1994).

In brackets after ≈: the same amount, converted by molar mass. Like-named read-outs stand apart in the source and are kept apart here.

Assay [1] concerns Plasmodium falciparum W-2 clone (Indochina). The assay is described as follows: In vitro antimalarial assay, W-2 clone (tritiated hypoxanthine uptake). Format: cell-based. The conditions noted are these: for IC50: Plasmodium falciparum, read-out: IC50, W-2 Clone. On the procedure:
(§1) The in vitro assays were performed by using a modification of the semi-automated microdilution technique described earlier in Desjardins et al.^29 and Milhous et al.^30 Two P. falciparum malaria parasite clones, designated as Indochina (W-2) and Sierra Leone (D-6), were utilized in susceptibility testing. The W-2 clone is resistant to chloroquine, pyrimethamine, sulfadoxine, and quinine, and the other clone is resistant to mefloquine. The test extracts were dissolved in dimethylsulfoxide (DMSO) and serially diluted with media. The uptake of tritiated hypoxanthine was used as an index of inhibition of parasite growth.
(§2) Two P. falciparum malaria parasite clones, designated as Indochina (W-2) and Sierra Leone (D-6), were utilized in susceptibility testing. The W-2 clone is resistant to chloroquine, pyrimethamine, sulfadoxine, and quinine, and the other clone is resistant to mafloquine.
(§3) The test extracts were dissolved in DMSO and serially diluted with media. The uptake of tritiated hypoxanthine was used an an index of inhibition of parasite growth.

Assay [2] relates to Plasmodium falciparum D-6 clone (Sierra Leone). The assay is described as follows: In vitro antimalarial assay, D-6 clone (tritiated hypoxanthine uptake). Format: cell-based. The conditions noted are these: for IC50: Plasmodium falciparum, read-out: IC50, D-6 Clone. On the procedure: as §1, §2, §3
Assay [3] deals with Trypanosoma brucei brucei. The assay is described as follows: In vivo antitrypanosomial activity, rat. Conditions: 7 mg i.p.
The subject of assay [4] is Trypanosoma brucei brucei. The assay is described as follows: In vivo antitrypanosomial activity, mouse. The conditions noted are these: 7 mg i.p.
For a further assay, the system named is avian malaria. Conditions: in vivo; cited from earlier work.
Another assay deals with malaria. Conditions: in vivo; cited from earlier work.
For assay [5] the following is noted: relative to cocaine; cited from earlier work.
In assay [6] the test system is W-2 and D-6 clones of Plasmodium falciparum. The assay is described as follows: In vitro antimalarial assay, statements on both clones. The class given is cell-based. Conditions: P. falciparum clones. On the procedure: as §1
The in vitro assays were performed by using a modification of the semi-automated microdilution technique described earlier (Desjardins et al., 1979; Milhous et al., 1985). Two P. falciparum malaria parasite clones, designated as Indochina (W-2) and Sierra Leone (D-6), were utilized in susceptibility testing. The W-2 clone is resistant to chloroquine, pyrimethamine, sulfadoxine, and quinine, and the other clone is resistant to mafloquine.
as §3

The subject of assay [7] is Leishmania (Leishmania) chagasi MHOM/BR/84/BA-13. Conditions: previously determined; cited from earlier work.
The subject of another assay is opiate receptor. Conditions: from cell suspension culture of P. nitida; cited from earlier work.
Assay [8] has as its system Leishmania (Leishmania) chagasi promastigotes (MHOM/BR/84/BA-13). Kind of assay: Growth inhibition of leishmania promastigotes over 96 hours. Format: cell-based. On the procedure: A clinical isolate of visceral Leishmania (Leishmania) chagasi, MHOM/BR/84/BA-13, was used for this study. This isolate was selected because sensitivity to SbV was previously determined using RAM. MHOM/BR/84/BA-13 is sensitive to Pentostam (sodium antimony gluconate) at 6 μg/ml Sb (20 μg/ml drug); and to Glucantime (N-methyl-glucamine antimoniate) at 80 μg/ml Sb (286 μg/ml drug)
Promastigotes of L. chagasi were grown in a serum-free, defined medium, MM2^43. The MM2 medium contained 120 μg/ml protein (10 μg/ml human transferrin, 10 μg/ml human insulin, 100 μg/ml defatted bovine albumin), plus 10 μg/ml low density bovine lipoprotein. […] Cultures were maintained at 25° C. during growth and incubation with drug.
Promastigotes were maintained in log phase growth for 3 successive transfers (48-72 hours apart) prior to radiorespirometric testing. Test extracts (or PBSS plus drug solvent [DMSO], for parallel control cultures) was added 24 hours after the third promastigote transfer to fresh growth medium. Incubation in the presence of plant extracts was continued for 96 additional hours while the parasites remained in mid-log phase growth. The rest of the radiorespirometric procedure was conducted as previously described^45.

[9] abbreviates: Table 5, alkaloids and reference drugs.

For the compound `CCN(CC)CCCC(C)Nc1ccnc2cc(Cl)ccc12` (stereo not shown) [Chloroquine, reference compound], the IC50 in [1] amounted to 0.04 µg/mL (≈ 0.125 µM); in assay [2] it was 0.006 µg/mL (≈ 0.0188 µM).
Turning to `COC(=O)C1=CO[C@@H](C)[C@@H]2CN3CCc4c([nH]c5ccccc45)C3C[C@H]12` (stereo partly shown) [Alstonine (tetrahydro-)], the IC50 in [1] (setting [9]) is 2.86 µg/mL (≈ 8.11 µM); in assay [2] (setting [9]), 2.76 µg/mL (≈ 7.83 µM).
As to `COC(=O)[C@@H]1[C@H]2C[C@H]3c4[nH]c5ccccc5c4CCN3C[C@@H]2CC[C@@H]1O` [Yohimbine, reference compound], the figures for the IC50 in assay [1] and in assay [2] were 6.16 µg/mL (≈ 17.4 µM) and 7.51 µg/mL (≈ 21.2 µM), respectively.
With `N=C(N)c1ccc(N=NNc2ccc(C(=N)N)cc2)cc1` [Berenil], the entries for the “Day of 0% Parasite Count” value in [3] and in [4] were 8 days and 6 days, respectively.
In the case of `C/C=C1/CN2[C@H]3C[C@H]1[C@@H](CO)[C@@H]2Cc1c3[nH]c2ccc(O)cc12` [Sarpagine, reference compound], the IC50 in assay [1] (setting [9]) is 29.2 µg/mL (≈ 94 µM); in assay [2] (setting [9]), 16.6 µg/mL (≈ 53.6 µM).
As for `C/C=C1/CN2CC[C@@]34c5cc(O)ccc5N(C)[C@]35OC[C@@]4(C(=O)OC)[C@@H]1C[C@H]25` [Akuammine], the IC50 amounted to 0.66 µg/mL (≈ 1.73 µM) in assay [1] (setting [9]) and 0.95 µg/mL (≈ 2.48 µM) in assay [2] (setting [9]). Besides, in the assay with avian malaria, the “activity against avian malaria” value is “inactive against avian malaria”. Besides, the “activity in clinical trials” value with malaria was “inactive”. Also, the “local anesthetic action” value in assay [5] is “local anesthetic action comparable to that of cocaine”.
For `C/C=C1/C[N@+]2(C)CC[C@@]34c5ccccc5N[C@]32[C@@H](O)C[C@@H]1[C@@]4(CO)C(=O)OC` [Echitamine, reference compound], the “IC50, W-2 Clone” value in [1] (setting [9]) amounted to 7.25 µg/mL. In assay [2] (setting [9]), the “IC50, D-6 Clone” value came out at 4.68 µg/mL. The “antimalarial activity in vitro” value in assay [6] is reported as “no activity”.
Take `C/C=C1/CN2CC[C@]34C(=C(C(=O)OC)[C@H]1C[C@H]23)Nc1ccccc14` [Akuammicine]: the values for the half-inhibitory concentration (IC50) in assay [1] (setting [9]) and in assay [2] (setting [9]) were 0.73 µg/mL (≈ 2.26 µM) and 0.45 µg/mL (≈ 1.4 µM), respectively.
Taken in the same sequence, the figures for `CC=C1CN2C3CC45c6ccccc6NC4(O3)C2CC1C5(COC(C)=O)C(=O)OC` (stereo not shown) [Picraline] were 0.53 µg/mL (≈ 1.29 µM) and 0.78 µg/mL (≈ 1.9 µM).
On to “N-methyl-glucamine antimoniate [Glucantime]”, for which, in assay [7], the “concentration at which isolate is sensitive, as Sb” value is recorded as 80 μg/ml Sb and the “concentration at which isolate is sensitive, as drug” value is 286 μg/ml drug.
Turning to `C=C1c2[nH]c3ccccc3c2CCN2CC[C@@H]1/C(=C\C)C2` [pericine], in the assay on opiate receptor, the “CNS activity, opiate receptor binding” value is on record as “CNS active”.
sodium antimony gluconate [Pentostam]: in assay [7], the “concentration at which isolate is sensitive, as Sb” value was 6 μg/ml Sb and the “concentration at which isolate is sensitive, as drug” value was 20 μg/ml drug.
For `C[C@@H]1CC[C@H]2[C@@H](C)C(=O)O[C@@H]3O[C@@]4(C)CC[C@@H]1[C@]32OO4` [Artemisinin, reference compound], the IC50 amounted to 0.002 µg/mL (≈ 0.00708 µM) in assay [1] (setting [9]) and 0.004 µg/mL (≈ 0.0142 µM) in assay [2] (setting [9]).
For `CC=C1CN2CCC34c5ccccc5N(C)C35OCC4(C(=O)OC)C1CC25` (stereo not shown) [.PSI.-Aukuammigine], the IC50 in assay [1] is 0.1 µg/mL (≈ 0.273 µM); in assay [2], 0.83 µg/mL (≈ 2.26 µM).
For the compound `CC[C@H]1[C@@H]2C[C@H]3[C@@H]4N(C)c5ccccc5[C@]45C[C@@H]([C@@H]2[C@H]5O)N3[C@@H]1O` [Ajmaline, reference compound], the figures for the IC50 in [1] (setting [9]) and in assay [2] (setting [9]) were 1.24 µg/mL (≈ 3.8 µM) and 4.7 µg/mL (≈ 14.4 µM), respectively.
On to `COC(=O)C1=CO[C@@H](C)[C@@H]2C[n+]3ccc4c([nH]c5ccccc54)c3C[C@H]12` [Alstonine], for which the values for the IC50 in [1] (setting [9]) and in assay [2] (setting [9]) were 0.09 µg/mL and 0.02 µg/mL, respectively. Besides, the “inhibition of leishmania promastigotes, ranking” value in [8] (alkaloids isolated from the active fraction) was “greatest inhibition”. Also, in [8] (leishmania promastigotes), the “concentration of the highest growth inhibition” value is 50 µg/mL. Besides, in assay [8] (leishmania promastigotes), the “growth inhibition, dose relation” value is reported as “dose related activity”.
`CC=C1CN2C3CC1C(CO)C2Cc1c3[nH]c2ccccc12` (stereo not shown) [PNF-S7]: the IC50 in assay [1] (setting [9]) worked out at 10.6 µg/mL (≈ 36 µM); in assay [2] (setting [9]) it was 7.6 µg/mL (≈ 25.8 µM).

The IC50 is the concentration at which inhibition is half-maximal.
